Experimental data from PubChem BioAssay (NCI).
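Where inhibition never reached the appropriate level, the endpoint shown equals the highest concentration tested. Otherwise, values were interpolated linearly from a five-concentration, 48-hour dose response in 96-well plates. Here, GI50 denotes the concentration required for 50% inhibition of growth. TGI: total growth inhibition.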

Experiments:
Experiment in all cases: NCI-60 cell line screen, 48 h
HCT-116 colon = test system: HCT-116 colon
NCI/ADR-RES ovarian = test system: NCI/ADR-RES ovarian
MCF7 breast = test system: MCF7 breast
SF-539 CNS = test system: SF-539 CNS
NCI-H226 lung = test system: NCI-H226 lung
PC-3 prostate = test system: PC-3 prostate
DU-145 prostate = test system: DU-145 prostate
BT-549 breast = test system: BT-549 breast
RXF 393 renal = test system: RXF 393 renal
U251 CNS = test system: U251 CNS
UACC-257 melanoma = test system: UACC-257 melanoma
HT29 colon = test system: HT29 colon
OVCAR-3 ovarian = test system: OVCAR-3 ovarian
SNB-75 CNS = test system: SNB-75 CNS
MOLT-4 leukemia = test system: MOLT-4 leukemia
MDA-N = test system: MDA-N
HOP-92 NSCLC = test system: HOP-92 NSCLC
M14 melanoma = test system: M14 melanoma
MALME-3M melanoma = test system: MALME-3M melanoma
SK-OV-3 ovarian = test system: SK-OV-3 ovarian
786-0 renal = test system: 786-0 renal
HCC-2998 colon = test system: HCC-2998 colon
HCT-15 colon = test system: HCT-15 colon
K-562 leukemia = test system: K-562 leukemia
SN12C renal = test system: SN12C renal
UO-31 renal = test system: UO-31 renal
EKVX NSCLC = test system: EKVX NSCLC
CCRF-CEM leukemia = test system: CCRF-CEM leukemia
A498 renal = test system: A498 renal
IGROV1 ovarian = test system: IGROV1 ovarian
TK-10 renal = test system: TK-10 renal
SF-268 CNS = test system: SF-268 CNS
OVCAR-5 ovarian = test system: OVCAR-5 ovarian
CAKI-1 renal = test system: CAKI-1 renal
OVCAR-8 ovarian = test system: OVCAR-8 ovarian
NCI-H23 lung = test system: NCI-H23 lung
SK-MEL-28 melanoma = test system: SK-MEL-28 melanoma
ACHN renal = test system: ACHN renal
HS 578T breast = test system: HS 578T breast
NCI-H522 lung = test system: NCI-H522 lung
SK-MEL-2 melanoma = test system: SK-MEL-2 melanoma
SK-MEL-5 melanoma = test system: SK-MEL-5 melanoma
COLO 205 colon = test system: COLO 205 colon
KM12 colon = test system: KM12 colon
HOP-62 NSCLC = test system: HOP-62 NSCLC
NCI-H460 lung = test system: NCI-H460 lung
LOX IMVI melanoma = test system: LOX IMVI melanoma
SF-295 CNS = test system: SF-295 CNS
RPMI-8226 leukemia = test system: RPMI-8226 leukemia
HL-60(TB) leukemia = test system: HL-60(TB) leukemia
MDA-MB-435 = test system: MDA-MB-435
SW-620 colon = test system: SW-620 colon
UACC-62 melanoma = test system: UACC-62 melanoma
MDA-MB-231 breast = test system: MDA-MB-231 breast
T-47D breast = test system: T-47D breast
SNB-19 CNS = test system: SNB-19 CNS
A549 NSCLC = test system: A549 NSCLC
OVCAR-4 ovarian = test system: OVCAR-4 ovarian

`COc1ccc(C2=C(c3ccccc3)C(=O)N3CCCC3C2)cc1` (stereo not drawn) was tested, and the GI50 (HCT-116 colon) was 0.0817 µM, the TGI (HCT-116 colon) was over 100 µM and the GI50 (NCI/ADR-RES ovarian) was 8.85 µM. It also gave a TGI (NCI/ADR-RES ovarian) of over 100 µM, a GI50 (MCF7 breast) of 2.98 µM and a TGI (MCF7 breast) of over 100 µM. The GI50 (SF-539 CNS) was 3.11 µM, the TGI (SF-539 CNS) was 98.2 µM and the TGI (NCI-H226 lung) was over 100 µM. The GI50 (PC-3 prostate) was 1.48 µM, the TGI (PC-3 prostate) was over 100 µM and the GI50 (DU-145 prostate) was 4.13 µM. It also gave a TGI (DU-145 prostate) of over 100 µM, a GI50 (BT-549 breast) of 32.5 µM and a TGI (BT-549 breast) of over 100 µM. It also gave a GI50 (RXF 393 renal) of 25.5 µM, a TGI (RXF 393 renal) of over 100 µM and a GI50 (U251 CNS) of 0.336 µM. The TGI (U251 CNS) was over 100 µM, the GI50 (UACC-257 melanoma) was over 49 µM and the TGI (UACC-257 melanoma) was over 100 µM. It also gave a GI50 (HT29 colon) of 0.233 µM, a TGI (HT29 colon) of over 100 µM and a GI50 (OVCAR-3 ovarian) of 57 µM. The TGI (OVCAR-3 ovarian) was over 100 µM, the GI50 (SNB-75 CNS) was 18.9 µM and the TGI (SNB-75 CNS) was over 100 µM. For the same molecule, the TGI (MOLT-4 leukemia) was over 100 µM, the GI50 (MDA-N) was 0.441 µM and the TGI (MDA-N) was over 100 µM. The GI50 (HOP-92 NSCLC) was over 100 µM, the TGI (HOP-92 NSCLC) was over 100 µM and the GI50 (M14 melanoma) was 9.54 µM. It also gave a TGI (M14 melanoma) of over 100 µM, a GI50 (MALME-3M melanoma) of over 100 µM and a TGI (MALME-3M melanoma) of over 100 µM. It also gave a GI50 (SK-OV-3 ovarian) of over 100 µM, a TGI (SK-OV-3 ovarian) of over 100 µM and a GI50 (786-0 renal) of 1.13 µM. It also gave a TGI (786-0 renal) of over 100 µM, a GI50 (HCC-2998 colon) of 2.27 µM and a TGI (HCC-2998 colon) of over 55.5 µM. The GI50 (HCT-15 colon) was under 0.0249 µM, the TGI (HCT-15 colon) was over 100 µM and the GI50 (K-562 leukemia) was 0.0893 µM. The TGI (K-562 leukemia) was over 100 µM, the GI50 (SN12C renal) was 13 µM and the TGI (SN12C renal) was over 100 µM. The GI50 (UO-31 renal) was 2.93 µM, the TGI (UO-31 renal) was over 100 µM and the GI50 (EKVX NSCLC) was over 82.9 µM. It also gave a TGI (EKVX NSCLC) of over 100 µM, a GI50 (CCRF-CEM leukemia) of 1.79 µM and a TGI (CCRF-CEM leukemia) of over 100 µM. The GI50 (A498 renal) was over 100 µM, the TGI (A498 renal) was over 100 µM and the GI50 (IGROV1 ovarian) was 8.51 µM. The TGI (IGROV1 ovarian) was over 100 µM, the GI50 (TK-10 renal) was 12.9 µM and the TGI (TK-10 renal) was over 100 µM. The GI50 (SF-268 CNS) was 26 µM, the TGI (SF-268 CNS) was over 100 µM and the GI50 (OVCAR-5 ovarian) was over 100 µM. For the same molecule, the TGI (OVCAR-5 ovarian) was over 100 µM, the GI50 (CAKI-1 renal) was 8.05 µM and the TGI (CAKI-1 renal) was over 100 µM. It also gave a GI50 (OVCAR-8 ovarian) of 9.42 µM, a TGI (OVCAR-8 ovarian) of over 100 µM and a GI50 (NCI-H23 lung) of over 32.3 µM. It also gave a TGI (NCI-H23 lung) of over 100 µM, a GI50 (SK-MEL-28 melanoma) of over 62.5 µM and a TGI (SK-MEL-28 melanoma) of over 100 µM. For the same molecule, the GI50 (ACHN renal) was 2.39 µM, the TGI (ACHN renal) was over 100 µM and the GI50 (HS 578T breast) was over 100 µM. The TGI (HS 578T breast) was over 100 µM, the GI50 (NCI-H522 lung) was 0.821 µM and the TGI (NCI-H522 lung) was over 100 µM. For the same molecule, the GI50 (SK-MEL-2 melanoma) was 23.8 µM, the TGI (SK-MEL-2 melanoma) was over 100 µM and the GI50 (SK-MEL-5 melanoma) was 3.17 µM. The TGI (SK-MEL-5 melanoma) was over 100 µM, the GI50 (COLO 205 colon) was 0.241 µM and the TGI (COLO 205 colon) was over 100 µM. The GI50 (KM12 colon) was 3.01 µM, the TGI (KM12 colon) was over 100 µM and the GI50 (HOP-62 NSCLC) was 39.8 µM. It also gave a TGI (HOP-62 NSCLC) of over 100 µM, a TGI (NCI-H460 lung) of over 62.9 µM and a GI50 (LOX IMVI melanoma) of 0.115 µM. For the same molecule, the TGI (LOX IMVI melanoma) was over 100 µM, the GI50 (SF-295 CNS) was 2.11 µM and the TGI (SF-295 CNS) was over 100 µM. The GI50 (RPMI-8226 leukemia) was 0.318 µM, the TGI (RPMI-8226 leukemia) was over 100 µM and the GI50 (HL-60(TB) leukemia) was 0.493 µM. The TGI (HL-60(TB) leukemia) was over 63.6 µM, the GI50 (MDA-MB-435) was 5.32 µM and the TGI (MDA-MB-435) was over 100 µM. The GI50 (SW-620 colon) was 1.24 µM, the TGI (SW-620 colon) was over 100 µM and the GI50 (UACC-62 melanoma) was 1.92 µM. It also gave a TGI (UACC-62 melanoma) of over 100 µM, a GI50 (MDA-MB-231 breast) of over 36.1 µM and a TGI (MDA-MB-231 breast) of over 100 µM. It also gave a GI50 (T-47D breast) of over 52.4 µM, a TGI (T-47D breast) of over 100 µM and a GI50 (SNB-19 CNS) of 8.01 µM. It also gave a TGI (SNB-19 CNS) of over 100 µM, a GI50 (A549 NSCLC) of 0.195 µM and a TGI (A549 NSCLC) of over 100 µM. The GI50 (OVCAR-4 ovarian) was 55.2 µM and the TGI (OVCAR-4 ovarian) was over 100 µM.
